The assay concerns the target T1, Casp6-WT-LS-SS (Homo sapiens, UniProt P55212).
T1 construct: obtained by co-expression and purification of LS and SS subunits of WT, L200A or K284A Casp6 from E. coli; His (C); made in house; host or cells: E. coli BL21(DE3)pLysS
T1 sequence (P55212 24-179 limits assumed): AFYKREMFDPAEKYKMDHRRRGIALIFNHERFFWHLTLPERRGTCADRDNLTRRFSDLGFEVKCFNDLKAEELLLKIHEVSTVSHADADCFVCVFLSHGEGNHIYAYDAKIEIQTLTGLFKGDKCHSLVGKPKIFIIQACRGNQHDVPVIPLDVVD
T1 sequence (P55212 194-293 limits assumed): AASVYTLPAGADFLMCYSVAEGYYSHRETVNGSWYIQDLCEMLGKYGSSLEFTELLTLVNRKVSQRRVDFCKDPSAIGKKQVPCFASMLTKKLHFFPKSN
Put plainly: C13 dose-response and global-fit kinetics on Casp6-WT-LS-SS. It counts as biochemical. The text has this:
Figure 4 Compounds S10G and C13 inhibit Casp6 through a noncompetitive mode of inhibition. (a) Michaelis-Menten kinetic plots of Casp6 enzymatic activity in presence of 1% DMSO or increasing doses S10G (top) and C13 (bottom). Data points represent mean ± SD of three independent experiments. (b) Lineweaver-Burk plots of Casp6 inhibition with S10G (top) and C13 (bottom). Red circle indicates the point where lines converge. (c) The relationship between the slopes of lines in Lineweaver-Burk plot analyses in panel (b) and inhibitor concentration. (d) Plots of IC50 values for S10G (top) and C13 (bottom) with varying concentrations of Ac-VEID-AFC substrate. Data points represent mean ± SD from three independent experiments for each substrate concentration. (e) Binding model of C13 into CASP6 putative allosteric site, derived from molecular docking. Left: C13 (green sticks) occupies the putative allosteric site (white surface and lines; Ala-mutated residues L200 and K284 shown as purple sticks). Right: predicted interactions with Casp6 allosteric pocket residues (pink balls polar, circled blue or red for basic and acidic, respectively. Green balls = hydrophobic. Dotted-arrow: blue and green for backbone and sidechain hydrogen-bond interactions, respectively. Blue shade = solvent exposed area). […] Data points on the graph represent the mean ± SD, and calculated Ki values represent mean ± standard error (SE) from three independent experiments. […]
Compounds, S10G (2.5 µM, 4.2 µM, 10 µM), and C13 (5 µM, 14 µM, 50 µM), were added to 20 nM active site titrated Casp6 and enzyme activity was measured with eight different Ac-VEID-AFC substrate concentrations (5.0 μM–200 μM) using fluorescence-based Casp6 activity assay as above. The apparent KM and Vmax values were determined through nonlinear regression analysis of Michaelis-Menten plots (v vs. [S]) using GraphPad Prism 5. The inhibition mode was determined from the pattern of converging Lineweaver-Burk plots (1/v vs. 1/[S])[54]. […]

Several values for one entry are separate records, joined by “and”; a condition that tells them apart may be missing. Identical values can stand only once.

By IC50 is commonly meant the concentration that inhibits the measured activity by half. For orientation: Ki means a measure of affinity in units of concentration, obtained from inhibition or displacement. For the compound `COC(=O)c1cc(CNC(=O)C2Cc3ccccc3O2)cc(NC(=O)c2ccco2)c1` (stereo not drawn) [Compound C13], the “inhibition model (best global fit), Casp6-WT-LS-SS” value (Ac-VEID-AFC hydrolysis, increasing substrate and C13 concentrations) is listed as “noncompetitive (mixed) model inhibition”. The IC50 (copurified LS and SS, read-out: IC50 of C13 for Casp6-WT-LS-SS (Fig. 4g)) was 31.8 ± 6.7 µM. For the same compound, where the note is “global fit to noncompetitive (mixed) model, 0–50 µM C13, mean ± SE”, the Ki was 7.45 µM and 7.5 µM.

The values are drawn from PMC6445123 (Scientific Reports, 2019).
